{
  "source": "paper PMC5520654",
  "about": "(Journal of immunology (Baltimore, Md. : 1950), 2017)",
  "key": {"[1]": {"system": "mice with CFA-induced inflammation", "type": "in vivo, mouse", "details": "ICR mice, CFA in right paw, 200 μCi iv, n=3"}, "[2]": {"system": "VLA-4 positive B16F10 melanoma cells", "details": "previously reported; cited from earlier work"}},
  "note": "Like-named read-outs stand apart in the source and are kept apart here.",
  "data": [
    {"substance": "CB-TE1A1P-PEG4-LLP2A [^64Cu-LLP2A]", "values": [
      {"measurement": "Inflamed paw/muscle ratio", "setting": "[1]; PET/CT 2 h post-injection", "result": "7.5 ± 3.7"},
      {"measurement": "Inflamed paw/muscle ratio", "setting": "[1]; PET/CT 6 h post-injection", "result": "16.7 ± 1"},
      {"measurement": "Kd", "setting": "[2]", "result": 0.28, "unit": "nM"}
    ]}
  ]
}
